Measured values from patent US12239711B2, “Cereblon ligands and bifunctional compounds comprising the same” (Arvinas Operations, Inc., priority 2014, dated 2025).

Assays:
[1] = target: T1, Estrogen Receptor-Alpha (ERα) (Homo sapiens, UniProt P03372); experiment: Estrogen Receptor-Alpha (ERα) degradation assay in MCF-7 cells (western blot / In-Cell Western); format: cell-based; details: for Dmax: MCF7, read-out: ER Dmax; for DC50: read-out: ER DC50
T1 construct: endogenous in cells; host or cells: MCF-7 (MCF7) cells
T1 sequence (P03372 1-595): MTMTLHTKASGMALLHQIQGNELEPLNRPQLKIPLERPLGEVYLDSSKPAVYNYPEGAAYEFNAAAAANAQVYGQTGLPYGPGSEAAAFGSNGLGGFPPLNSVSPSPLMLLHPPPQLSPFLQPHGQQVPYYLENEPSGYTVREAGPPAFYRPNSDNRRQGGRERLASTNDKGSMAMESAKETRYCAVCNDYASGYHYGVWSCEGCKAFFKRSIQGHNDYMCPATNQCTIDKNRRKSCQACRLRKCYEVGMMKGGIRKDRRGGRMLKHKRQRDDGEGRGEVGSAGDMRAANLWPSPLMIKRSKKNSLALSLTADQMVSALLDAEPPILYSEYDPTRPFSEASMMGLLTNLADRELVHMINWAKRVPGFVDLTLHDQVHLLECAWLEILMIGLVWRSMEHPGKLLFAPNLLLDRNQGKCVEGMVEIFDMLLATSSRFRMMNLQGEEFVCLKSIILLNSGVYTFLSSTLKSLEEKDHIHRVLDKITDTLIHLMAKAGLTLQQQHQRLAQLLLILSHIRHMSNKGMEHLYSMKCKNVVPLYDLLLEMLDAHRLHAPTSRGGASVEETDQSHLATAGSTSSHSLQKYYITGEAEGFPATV
Experimental: 2. Estrogen Receptor-Alpha (ERα) Degradation Assay in MCF-7 Cells Using Western Blot Method for Table 5.
The exemplary novel ERα degraders were assessed for their activity in degrading ERα in MCF-7 cells via western blot. The assay was carried out in the presence of 10% FBS or high percentage of human or mouse serum. Protocols of the western blot assay are described below.
MCF7 cells were grown in DMEM/F12 with 10% FBS and seeded at 24,000 cells per well in 100 μl into 96-well clear tissue culture plates. The following day, the cells were treated with PROTACs in a […] concentration curve with 100 nM being the top concentration and serial dilutions to make the other concentrations (30 nM, 10 nM, 3 nM, 1 nM, and 0.3 nM). At all concentrations, 0.01% DMSO is the final concentration in the well. The following day, the plates are aspirated, washed with 50 μl of cold PBS. The cells are lysed with 50 μl/well 4° C. Cell Lysis Buffer (Catalog #9803; Cell Signaling Technology, Danvers, MA) (20 mM Tris-HCL (pH 7.5), 150 mM NaCl, 1 mM Na2EDTA, 1 mM EGTA, 1% Triton, 2.5 mM sodium pyrophosphate, 1 mM B-glycerophosphate, 1 mM sodium vanadate, 1 ug/ml leupeptin). Lysates were clarified at 16,000×g for 10 minutes, and 2 μg of protein was subjected to SDS-PAGE analysis and followed by immunoblotting according to standard protocols. The antibodies used were ERα (Cell Signaling Technologies Catalog #8644), and Tubulin (Sigma Catalog #T9026; St. Louis, MO). Detection reagents were Clarity Western ECL substrate (Bio-Rad Catalog #170-5060; Hercules, CA).
Alternatively, MCF7 cells were grown in DMEM/F12 with 10% FBS and seeded at 24,000 cells per well in 500 μl in 24-well clear tissue culture plates. The following day, the cells were treated with PROTACs in a 5-point concentration curve (100 nM, 33 nM, 11 nM, 3.7 nM, and 1.2 nM) in the presence of 0.01% DMSO. After 72 hours, the wells are aspirated and washed with 500 μl of PBS. The cells are lysed with 100 μl/well 4° C. Cell Lysis Buffer (Catalog #9803; Cell Signaling Technology, Danvers, MA) (20 mM Tris-HCL (pH 7.5), 150 mM NaCl, 1 mM Na2EDTA, 1 mM EGTA, 1% Triton, 2.5 mM sodium pyrophosphate, 1 mM B-glycerophosphate, 1 mM sodium vanadate, 1 ug/ml leupeptin). Lysates were clarified at 16,000×g for 10 minutes, and 2 μg of protein was subjected to SDS-PAGE analysis and followed by immunoblotting according to standard protocols. The antibodies used were ERα (Cell Signaling Technologies Catalog #8644), and Tubulin (Sigma Catalog #T9026; St. Louis, MO). Detection reagents were Clarity Western ECL substrate (Bio-Rad Catalog #170-5060; Hercules, CA).
3. Estrogen Receptor-Alpha (ERα) Degradation Assay Using In-Cell Western™ Assay for Table 5.
Degradation of ERα by claimed compounds were determined in MCF7 cells using an In-Cell Western™ assay. Briefly, MCF7 cells were plated in 96-well plates (2000 cells per well in 100 μl media) and incubated at 37° C. under an atmosphere of 5% CO2 in a humidified incubator overnight. One-hundred (100) μl of media containing test compound (at 2× concentration) was added to the appropriate wells to provide 11 serially decreasing concentrations (top final concentration, 1 μM then 3-fold less for the next 10 concentrations); a vehicle control (DMSO) was also added for each compound. For each experiment, all compounds were assayed in duplicate plates. Cells were then incubated for 3 or 5 days in the above-mentioned environment. The assay was terminated by removal of media, a single wash with ice-cold PBS and the addition of 50 μl paraformaldehyde (PFA: 4% in PBS). After 15 minutes in PFA at room temperature, the cells were permeabilized in Tris-phosphate-buffered saline with Tween (0.1%) (TBST) supplemented with Triton X-100 (0.5%) for 15 minutes. Cells were then blocked in BSA (TBST with BSA, 3%) for one hour. […]

[2] = tested on: estrogen responsive element/promoter/luciferase reporter gene; experiment: ERE Luciferase Assay in T47D-KBluc cells; format: cell-based, human; details: Homo sapiens, 24 hours, luciferase activity, read-out: Target Engagement IC50
Experimental: 1. ERE Luciferase Assay for Compounds in Table 5.
T47D-KBluc cells (ATCC® #CRL_2865, T47D human breast cancer cells stably transfected with estrogen responsive element/promoter/luciferase reporter gene) were seeded into 96-well white opaque plates in RPMI growth medium supplemented with 10% fetal bovine serum (FBS) and allowed to adhere overnight in a 37° C. humidified incubator. The following day, cells were treated with PROTACs in a 12-point concentration curve (top final concentration of 300 nM with subsequent concentrations being 3-fold less with 2 pM being the lowest concentration in the assay). Each PROTAC was tested independently in two experiments on 96-well plates. After 24 hours, media was removed and lysis buffer was added to the wells. Following lysis, Bright-Glo™ Luciferase Assay Substrate (Promega, Madison WI) was added and the luciferase activity was measured using a Cytation 3 plate reader (BioTek™, Winooski, VT). Each compound was assayed in duplicate and the activity was calculated as IC50 using GraphPad Prism software (San Diego, CA).

| Structure (SMILES) | Dmax [1] [%] | DC50 [1] [nM] | IC50 [2] [nM] |
| --- | --- | --- | --- |
| O=C1CCC(n2nc3cc(N4CCN(CCCCCOc5ccc([C@@H]6c7ccc(O)cc7CC[C@@H]6c6ccccc6)cc5)CC4)ccn3c2=O)C(=O)N1 (stereo partly drawn) [compound 25, 3-{7-[4-(5-{4-[(1R,2S)-6-hydroxy-2-phenyl-1,2,3,4-tetrahydronaphthalen-1-yl]phenoxy}pentyl)piperazin-1-yl]-3-oxo-2H,3H-[1,2,4]triazolo[4,3-a]pyridin-2-yl}piperidine-2,6-dione] | < 50 | – | 0.5 |
| COc1cc(N2CCN(CC(=O)C3CC(Oc4ccc([C@@H]5c6ccc(O)cc6CC[C@@H]5c5ccccc5)cc4)C3)CC2)cc2c1C(=O)N(C1CCC(=O)NC1=O)C2 (stereo partly drawn) [compound 26, 3-[5-[4-[2-[3-[4-[(1R,2S)-6-hydroxy-2-phenyl-tetralin-1-yl]phenoxy]cyclobutyl]-2-oxo-ethyl]piperazin-1-yl]-7-methoxy-1-oxo-isoindolin-2-yl]piperidine-2,6-dione] | ≥ 75 | < 1 | 0.7 |
| O=C1CCC(N2Cc3cc(N4CCN(CCC5(O)CC(Oc6ccc([C@@H]7c8ccc(O)cc8CC[C@@H]7c7ccccc7)cc6)C5)CC4)cc(OC(F)F)c3C2=O)C(=O)N1 (stereo partly drawn) [compound 27, 3-[7-(difluoromethoxy)-5-[4-[2-[1-hydroxy-3-[4-[(1R,2S)-6-hydroxy-2-phenyl-tetralin-1-yl]phenoxy]cyclobutyl]ethyl]piperazin-1-yl]-1-oxo-isoindolin-2-yl]piperidine-2,6-dione] | 50 to 75 | < 1 | 0.5 |
| COc1cc(N2CCN(CCC3(O)CC(Oc4ccc([C@@H]5c6ccc(O)cc6CC[C@@H]5c5ccccc5)cc4)C3)CC2)cc2c1C(=O)N(C1CCC(=O)NC1=O)C2 (stereo partly drawn) [compound 28, 3-[5-[4-[2-[1-hydroxy-3-[4-[(1R,2S)-6-hydroxy-2-phenyl-tetralin-1-yl]phenoxy]cyclobutyl]ethyl]piperazin-1-yl]-7-methoxy-1-oxo-isoindolin-2-yl]piperidine-2,6-dione] | ≥ 75 | < 1 | 0.3 |
| O=C1CCC(N2C(=O)c3ccc(N4CCN(CC5CCN(c6ccc([C@@H]7c8ccc(O)cc8CC[C@@H]7c7ccccc7)cc6F)CC5)CC4)cc3C23CC3)C(=O)N1 (stereo partly drawn) [compound 30, 3-[6′-[4-[[1-[2-fluoro-4-[(1R,2S)-6-hydroxy-2-phenyl-tetralin-1-yl]phenyl]-4-piperidyl]methyl]piperazin-1-yl]-3′-oxo-spiro[cyclopropane-1,1′-isoindoline]-2′-yl]piperidine-2,6-dione] | 50 to 75 | 1 to 10 | 2.1 |

Results, then the molecule that gave them:

| Dmax [1] [%] | DC50 [1] [nM] | IC50 [2] [nM] | Structure (SMILES) |
| --- | --- | --- | --- |
| ≥ 75 | 1 to 10 | 4.4 | O=C1CCC(N2Cc3cc(N4CCN(CCC5CCN(c6ccc([C@@H]7c8ccc(O)cc8CC[C@@H]7c7ccccc7)cc6)CC5)CC4)cc(OC(F)F)c3C2=O)C(=O)N1 (stereo partly drawn) [compound 22, 3-[7-(difluoromethoxy)-5-[4-[2-[1-[4-[(1R,2S)-6-hydroxy-2-phenyl-tetralin-1-yl]phenyl]-4-piperidyl]ethyl]piperazin-1-yl]-1-oxo-isoindolin-2-yl]piperidine-2,6-dione] |
| 50 to 75 | 1 to 10 | 1.8 | O=C1CCC(N2Cc3cc(N4CCN(CCC5CC(Oc6ccc([C@@H]7c8ccc(O)cc8CC[C@@H]7c7ccccc7)cc6)C5)CC4)cc(OC(F)F)c3C2=O)C(=O)N1 (stereo partly drawn) [compound 23, 3-[7-(difluoromethoxy)-5-[4-[2-[3-[4-[(1R,2S)-6-hydroxy-2-phenyl-tetralin-1-yl]phenoxy]cyclobutyl]ethyl]piperazin-1-yl]-1-oxo-isoindolin-2-yl]piperidine-2,6-dione] |
| ≥ 75 | 1 to 10 | 0.7 | COc1cc(N2CCN(CCC3CCN(c4ccc([C@@H]5c6ccc(O)cc6CC[C@@H]5c5ccccc5)cc4F)CC3)CC2)cc2c1C(=O)N(C1CCC(=O)NC1=O)C2 (stereo partly drawn) [compound 24, 3-[5-[4-[2-[1-[2-fluoro-4-[(1R,2S)-6-hydroxy-2-phenyl-tetralin-1-yl]phenyl]-4-piperidyl]ethyl]piperazin-1-yl]-7-methoxy-1-oxo-isoindolin-2-yl]piperidine-2,6-dione] |
| < 50 | – | 2.4 | O=C1CCC(N2C(=O)c3ccc(N4CCN(CC5CCN(c6ccc([C@@H]7c8ccc(O)cc8CC[C@@H]7c7ccccc7)cc6)CC5)CC4)cc3C23CC3)C(=O)N1 (stereo partly drawn) [compound 29, 3-(6′-{4-[(1-{4-[(1R,2S)-6-hydroxy-2-phenyl-1,2,3,4-tetrahydronaphthalen-1-yl]phenyl}piperidin-4-yl)methyl]piperazin-1-yl}-3′-oxo-2′,3′-dihydrospiro[cyclopropane-1,1′-isoindole]-2′-yl)piperidine-2,6-dione] |
